# Tested on: A2780
# Experiment: Cellular A2780 viability assay (CellTiter-Glo, 72 hours)
# Format: cell-based
# Conditions: Homo sapiens
# Excerpt: Human T-cell acute lymphoblastic leukemia cell line, MOLT-4 (ATCC, Cat #CRL-1582), Human multiple myeloma cell line, RPMI-8226 (Invitrogen, Cat #22400-089) and MM.1S (ATCC, Cat #CRL-2974), NSCLC (Non-small cell lung cancer) cell line H460 (ATCC, Cat #HTB-177), Human colon colorectal carcinoma cell line HCT116 (ATCC, Cat #CCL-247), Human acute monocytic leukemia cell line MV4-11 (ATCC, Cat #CRL-9591), OVCAR-3 (ATCC, Cat #HTB-161) and A2780 (ECACC, Cat #93112519) were obtained from ATCC. Cells were grown in RPMI-1640 media (Invitrogen, Cat #22400-089) supplemented with 10% FBS (Invitrogen, Cat #10099141) and 1% penicillin/streptomycin (Invitrogen, Cat #15070063) and cultured at 37° C., 5% CO2 in a humidified chamber. All cell lines were routinely tested for mycoplasma.
# The effect of the CDK7 inhibitor to inhibit the growth of target cancer cells was evaluated through the 72 hours time period of viability assay. Briefly, the candidate cell line ware plated in 96 well plate at the following density of cells respectively. 1×10^4 cells/well for MOLT-4, RPMI-8226, MV4-11 and MM.1S, 5×10^3 for H460, HCT116 and OVCAR-3 and IX 10^3 for A2780. After 24 hours, the cells were treated with various concentrations of the compound (ranging from 0.0015 uM to 10 uM). DMSO solvent without compound served as a control and final DMSO concentration less than 0.1%. After 72 hours of incubation at 37° C., 5% CO2 incubator, cells were analyzed for the viability using the CellTiter-Glo Luminescent Cell Viability Assay (Promega, Cat #G7570). All viability assays were performed in duplicate and Luminescence was read using an Envision (Perkin Elmer, USA). Data was analyzed using XLfit software.
row,IC50,Compound
1,≤ 1000 nM,CC(C)c1cnn2c(NCc3ccccc3-c3ccc4ccccc4n3)nc(NC[C@@H](O)CN)nc12 [Compound 248]
2,≤ 1000 nM,CC(C)c1cnn2c(NCc3c(Cl)cccc3-c3cc(C(C)(C)O)n(C)n3)nc(N3CCC(N)CC3)nc12 [Compound 244]
3,1000 to 10000 nM,CC(C)c1cnn2c(NCc3ccccc3-c3ccc4ccccc4n3)nc(NCC3CCOCC3)nc12 [Compound 267]
4,1000 to 10000 nM,CC(C)c1cnn2c(NCc3ccccc3-c3ccc4ccccc4n3)nc(N3CCCC[C@H]3CCO)nc12 [Compound 260]

# Tested on: MV4-11
# Experiment: Cellular MV4-11 viability assay (CellTiter-Glo, 72 hours)
# Format: cell-based
# Conditions: Homo sapiens
# Procedure, shortened: (§1)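 Cells were plated at line-specific densities and exposed to compound for 72 hours at 37 °C, 5% CO2, with DMSO-only wells as control (final DMSO below 0.1%). Viability was measured by CellTiter-Glo luminescence in duplicate.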
row,IC50,Compound
1,1000 to 10000 nM,CC(C)c1cnn2c(NCc3ccccc3-c3ccc4ccccc4n3)nc(NC[C@@H](O)CN)nc12 [Compound 248]
2,< 1000 nM,CC(C)c1cnn2c(NCc3c(Cl)cccc3-c3cc(C(C)(C)O)n(C)n3)nc(N3CCC(N)CC3)nc12 [Compound 244]
3,> 10000 nM,CC(C)c1cnn2c(NCc3ccccc3-c3ccc4ccccc4n3)nc(NCC3CCOCC3)nc12 [Compound 267]
4,1000 to 10000 nM,CC(C)c1cnn2c(NCc3ccccc3-c3ccc4ccccc4n3)nc(N3CCCC[C@H]3CCO)nc12 [Compound 260]

# Target: T1, CDK2/Cyclin A (Homo sapiens, UniProt P24941)
# T1 construct: purchased Invitrogen PV6290
# Experiment: Enzymatic assay for CDK2 (FRET based LANCE Ultra kinase assay)
# Format: biochemical
# Conditions: read-out: CDK2 enzymatic activity (IC50 activity range)
# Procedure, shortened: (§2)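 Each CDK complex ([…]) phosphorylated 68 nM ULight-MBP peptide with ATP at Km for 60 min at 23° C., against 8 compound doses (4-fold dilutions). EDTA/Eu-anti-phospho-MBP detection, 60 min, then TR-FRET emission at 615 and 665 nm.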
row,IC50,Compound
1,> 1000 nM,CC(C)c1cnn2c(NCc3ccccc3-c3ccc4ccccc4n3)nc(NCC3CCOCC3)nc12 [Compound 267]
2,> 1000 nM,CC(C)c1cnn2c(NCc3ccccc3-c3ccc4ccccc4n3)nc(N3CCCC[C@H]3CCO)nc12 [Compound 260]

# Same assay, conditions: read-out: CDK2 enzymatic activity (IC50 range)
row,IC50,Compound
1,> 1000 nM,CC(C)c1cnn2c(NCc3ccccc3-c3ccc4ccccc4n3)nc(NC[C@@H](O)CN)nc12 [Compound 248]
2,> 1000 nM,CC(C)c1cnn2c(NCc3c(Cl)cccc3-c3cc(C(C)(C)O)n(C)n3)nc(N3CCC(N)CC3)nc12 [Compound 244]

# Target: T2, CDK7/Cyclin H/MNAT1 (Homo sapiens, UniProt P50613)
# T2 construct: purchased Invitrogen PR6749B
# Experiment: Enzymatic assay for CDK7 (FRET based LANCE Ultra kinase assay)
# Format: biochemical
# Conditions: CDK1/CDK7
# Procedure, shortened: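 LANCE Ultra TR-FRET kinase assay using a ULight-labeled peptide substrate and a Eu-labeled anti-phospho antibody, with ATP at its Km. Purified CDK/cyclin complex was added to compound after brief centrifugation.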
# T2 sequence (P50613 whole entry): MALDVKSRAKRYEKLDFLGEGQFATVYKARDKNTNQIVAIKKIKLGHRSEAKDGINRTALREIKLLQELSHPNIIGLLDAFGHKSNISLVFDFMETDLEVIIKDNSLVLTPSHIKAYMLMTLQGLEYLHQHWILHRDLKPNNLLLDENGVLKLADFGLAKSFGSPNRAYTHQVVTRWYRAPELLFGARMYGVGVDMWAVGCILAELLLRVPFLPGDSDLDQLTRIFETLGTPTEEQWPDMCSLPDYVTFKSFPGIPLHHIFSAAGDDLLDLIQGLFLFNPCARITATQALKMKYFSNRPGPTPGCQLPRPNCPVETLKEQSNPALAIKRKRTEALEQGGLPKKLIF
# T2 sequence (P51946 whole entry partner): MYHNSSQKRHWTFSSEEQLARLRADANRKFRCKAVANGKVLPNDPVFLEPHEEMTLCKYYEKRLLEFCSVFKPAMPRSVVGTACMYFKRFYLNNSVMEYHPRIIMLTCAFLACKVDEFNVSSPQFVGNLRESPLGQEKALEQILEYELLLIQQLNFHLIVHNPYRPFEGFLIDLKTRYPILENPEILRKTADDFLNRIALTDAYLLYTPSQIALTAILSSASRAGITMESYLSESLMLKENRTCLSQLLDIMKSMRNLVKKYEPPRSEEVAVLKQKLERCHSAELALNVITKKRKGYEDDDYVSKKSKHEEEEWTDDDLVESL
# T2 sequence (P51948 whole entry partner): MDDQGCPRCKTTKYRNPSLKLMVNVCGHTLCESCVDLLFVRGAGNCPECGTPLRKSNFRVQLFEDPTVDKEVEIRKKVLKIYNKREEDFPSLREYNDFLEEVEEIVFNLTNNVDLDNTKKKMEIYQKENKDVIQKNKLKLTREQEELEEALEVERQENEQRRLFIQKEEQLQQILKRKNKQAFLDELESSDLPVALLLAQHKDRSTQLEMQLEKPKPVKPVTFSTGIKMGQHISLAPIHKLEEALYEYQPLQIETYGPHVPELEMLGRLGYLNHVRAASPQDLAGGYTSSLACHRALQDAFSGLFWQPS
row,Compound,CDK1/CDK7: Selectivity of CDK7 inhibition over CDK1 inhibition
1,CC(C)c1cnn2c(NCc3ccccc3-c3ccc4ccccc4n3)nc(NCC3CCOCC3)nc12 [Compound 267],"B (B=less than 200 fold, but greater than 20 fold)"
2,CC(C)c1cnn2c(NCc3ccccc3-c3ccc4ccccc4n3)nc(N3CCCC[C@H]3CCO)nc12 [Compound 260],"B (B=less than 200 fold, but greater than 20 fold)"

# Same assay, conditions: CDK2/CDK7
row,Compound,CDK2/CDK7: Selectivity of CDK7 inhibition over CDK2 inhibition
1,CC(C)c1cnn2c(NCc3ccccc3-c3ccc4ccccc4n3)nc(NCC3CCOCC3)nc12 [Compound 267],"B (B=less than 200 fold, but greater than 20 fold)"
2,CC(C)c1cnn2c(NCc3ccccc3-c3ccc4ccccc4n3)nc(N3CCCC[C@H]3CCO)nc12 [Compound 260],"B (B=less than 200 fold, but greater than 20 fold)"

# Same assay, conditions: CDK5/CDK7
row,Compound,CDK5/CDK7: Selectivity of CDK7 inhibition over CDK5 inhibition
1,CC(C)c1cnn2c(NCc3ccccc3-c3ccc4ccccc4n3)nc(NCC3CCOCC3)nc12 [Compound 267],"B (B=less than 200 fold, but greater than 20 fold)"
2,CC(C)c1cnn2c(NCc3ccccc3-c3ccc4ccccc4n3)nc(N3CCCC[C@H]3CCO)nc12 [Compound 260],"B (B=less than 200 fold, but greater than 20 fold)"

# Same assay, conditions: CDK7 over CDK1
row,CDK1/CDK7: Selectivity of CDK7 inhibition over CDK1 inhibition,Compound
1,A (A=greater than 200 fold),CC(C)c1cnn2c(NCc3ccccc3-c3ccc4ccccc4n3)nc(NC[C@@H](O)CN)nc12 [Compound 248]
2,A (A=greater than 200 fold),CC(C)c1cnn2c(NCc3c(Cl)cccc3-c3cc(C(C)(C)O)n(C)n3)nc(N3CCC(N)CC3)nc12 [Compound 244]

# Same assay, conditions: CDK7 over CDK2
row,CDK2/CDK7: Selectivity of CDK7 inhibition over CDK2 inhibition,Compound
1,A (A=greater than 200 fold),CC(C)c1cnn2c(NCc3ccccc3-c3ccc4ccccc4n3)nc(NC[C@@H](O)CN)nc12 [Compound 248]
2,A (A=greater than 200 fold),CC(C)c1cnn2c(NCc3c(Cl)cccc3-c3cc(C(C)(C)O)n(C)n3)nc(N3CCC(N)CC3)nc12 [Compound 244]

# Same assay, conditions: CDK7 over CDK5
row,CDK5/CDK7: Selectivity of CDK7 inhibition over CDK5 inhibition,Compound
1,A (A=greater than 200 fold),CC(C)c1cnn2c(NCc3ccccc3-c3ccc4ccccc4n3)nc(NC[C@@H](O)CN)nc12 [Compound 248]
2,A (A=greater than 200 fold),CC(C)c1cnn2c(NCc3c(Cl)cccc3-c3cc(C(C)(C)O)n(C)n3)nc(N3CCC(N)CC3)nc12 [Compound 244]

# Same assay, conditions: read-out: CDK7 enzymatic activity (IC50 activity range)
row,IC50,Compound
1,100 to 1000 nM,CC(C)c1cnn2c(NCc3ccccc3-c3ccc4ccccc4n3)nc(NCC3CCOCC3)nc12 [Compound 267]
2,100 to 1000 nM,CC(C)c1cnn2c(NCc3ccccc3-c3ccc4ccccc4n3)nc(N3CCCC[C@H]3CCO)nc12 [Compound 260]

# Same assay, conditions: read-out: CDK7 enzymatic activity (IC50 range)
row,IC50,Compound
1,< 100 nM,CC(C)c1cnn2c(NCc3ccccc3-c3ccc4ccccc4n3)nc(NC[C@@H](O)CN)nc12 [Compound 248]
2,< 100 nM,CC(C)c1cnn2c(NCc3c(Cl)cccc3-c3cc(C(C)(C)O)n(C)n3)nc(N3CCC(N)CC3)nc12 [Compound 244]

# Tested on: H460
# Experiment: Cellular H460 viability assay (CellTiter-Glo, 72 hours)
# Format: cell-based
# Conditions: Homo sapiens, NCI-H460
# Procedure, shortened: as §1
row,IC50,Compound
1,< 1000 nM,CC(C)c1cnn2c(NCc3ccccc3-c3ccc4ccccc4n3)nc(NC[C@@H](O)CN)nc12 [Compound 248]
2,< 1000 nM,CC(C)c1cnn2c(NCc3c(Cl)cccc3-c3cc(C(C)(C)O)n(C)n3)nc(N3CCC(N)CC3)nc12 [Compound 244]
3,1000 to 10000 nM,CC(C)c1cnn2c(NCc3ccccc3-c3ccc4ccccc4n3)nc(NCC3CCOCC3)nc12 [Compound 267]
4,1000 to 10000 nM,CC(C)c1cnn2c(NCc3ccccc3-c3ccc4ccccc4n3)nc(N3CCCC[C@H]3CCO)nc12 [Compound 260]

# Target: T3, CDK5/p25 (Homo sapiens, UniProt Q00535)
# T3 construct: purchased Invitrogen PR8543B
# Experiment: Enzymatic assay for CDK5 (FRET based LANCE Ultra kinase assay)
# Format: biochemical
# Conditions: read-out: CDK5 enzymatic activity (IC50 activity range)
# Procedure, shortened: as §2
# T3 sequence (Q00535 whole entry): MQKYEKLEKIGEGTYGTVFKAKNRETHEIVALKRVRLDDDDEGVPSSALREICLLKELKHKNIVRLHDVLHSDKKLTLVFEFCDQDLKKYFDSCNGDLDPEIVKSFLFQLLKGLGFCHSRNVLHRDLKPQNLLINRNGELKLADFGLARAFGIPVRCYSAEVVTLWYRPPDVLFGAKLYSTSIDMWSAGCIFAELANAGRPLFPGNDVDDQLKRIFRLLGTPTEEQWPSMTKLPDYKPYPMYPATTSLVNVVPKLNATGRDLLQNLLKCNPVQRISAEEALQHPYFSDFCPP
# T3 sequence (Q15078 99-307 partner limits assumed): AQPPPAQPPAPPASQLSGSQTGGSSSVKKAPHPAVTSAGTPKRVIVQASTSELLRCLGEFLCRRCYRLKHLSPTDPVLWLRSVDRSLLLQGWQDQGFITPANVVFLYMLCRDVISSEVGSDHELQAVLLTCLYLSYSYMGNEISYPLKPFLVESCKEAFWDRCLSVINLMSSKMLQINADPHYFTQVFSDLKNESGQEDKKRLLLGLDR
row,IC50,Compound
1,> 1000 nM,CC(C)c1cnn2c(NCc3ccccc3-c3ccc4ccccc4n3)nc(NCC3CCOCC3)nc12 [Compound 267]
2,> 1000 nM,CC(C)c1cnn2c(NCc3ccccc3-c3ccc4ccccc4n3)nc(N3CCCC[C@H]3CCO)nc12 [Compound 260]

# Same assay, conditions: read-out: CDK5 enzymatic activity (IC50 range)
row,IC50,Compound
1,> 1000 nM,CC(C)c1cnn2c(NCc3ccccc3-c3ccc4ccccc4n3)nc(NC[C@@H](O)CN)nc12 [Compound 248]
2,> 1000 nM,CC(C)c1cnn2c(NCc3c(Cl)cccc3-c3cc(C(C)(C)O)n(C)n3)nc(N3CCC(N)CC3)nc12 [Compound 244]

# Target: T4, CDK1/Cyclin B (Homo sapiens, UniProt P06493)
# T4 construct: purchased Invitrogen PR4768C
# Experiment: Enzymatic assay for CDK1 (FRET based LANCE Ultra kinase assay)
# Format: biochemical
# Conditions: read-out: CDK1 enzymatic activity (IC50 activity range)
# Procedure, shortened: as §2
# T4 sequence (P06493 whole entry): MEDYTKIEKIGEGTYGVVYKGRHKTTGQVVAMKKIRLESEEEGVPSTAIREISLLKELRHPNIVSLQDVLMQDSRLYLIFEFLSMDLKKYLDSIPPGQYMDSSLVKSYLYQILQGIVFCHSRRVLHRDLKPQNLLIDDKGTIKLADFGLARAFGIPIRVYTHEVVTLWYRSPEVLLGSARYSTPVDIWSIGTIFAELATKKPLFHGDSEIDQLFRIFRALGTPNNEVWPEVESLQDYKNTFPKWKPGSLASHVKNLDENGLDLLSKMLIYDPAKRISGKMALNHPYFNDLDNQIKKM
# T4 sequence (P14635 whole entry partner): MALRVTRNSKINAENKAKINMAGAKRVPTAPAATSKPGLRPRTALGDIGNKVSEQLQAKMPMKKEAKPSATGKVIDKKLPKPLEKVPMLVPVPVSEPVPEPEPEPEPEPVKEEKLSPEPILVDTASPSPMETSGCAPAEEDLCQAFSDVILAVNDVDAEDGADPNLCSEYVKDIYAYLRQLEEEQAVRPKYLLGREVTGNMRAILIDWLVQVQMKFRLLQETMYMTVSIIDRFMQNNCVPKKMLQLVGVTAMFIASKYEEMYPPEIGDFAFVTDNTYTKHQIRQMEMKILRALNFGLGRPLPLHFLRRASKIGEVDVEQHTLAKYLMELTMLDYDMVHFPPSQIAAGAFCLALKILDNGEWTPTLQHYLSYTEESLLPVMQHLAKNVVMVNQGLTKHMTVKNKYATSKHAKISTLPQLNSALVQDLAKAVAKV
row,IC50,Compound
1,> 1000 nM,CC(C)c1cnn2c(NCc3ccccc3-c3ccc4ccccc4n3)nc(NCC3CCOCC3)nc12 [Compound 267]
2,> 1000 nM,CC(C)c1cnn2c(NCc3ccccc3-c3ccc4ccccc4n3)nc(N3CCCC[C@H]3CCO)nc12 [Compound 260]

# Same assay, conditions: read-out: CDK1 enzymatic activity (IC50 range)
row,IC50,Compound
1,> 1000 nM,CC(C)c1cnn2c(NCc3ccccc3-c3ccc4ccccc4n3)nc(NC[C@@H](O)CN)nc12 [Compound 248]
2,> 1000 nM,CC(C)c1cnn2c(NCc3c(Cl)cccc3-c3cc(C(C)(C)O)n(C)n3)nc(N3CCC(N)CC3)nc12 [Compound 244]
